Assay results from patent US20240122865A1, “Methods of Protecting RNA” (Pfizer Inc., priority 2021, published 2024).

What was measured:
Type in all cases: biochemical, Trichoderma atroviride
FgenL mRNA construct = assay: Size Exclusion Base Hydrolysis Degradation Assay, FgenL; details: 25 mM amino acid; for T0 R1 peak area at 250 nm: FgenL 0.1 mg/mL, 50 mM CAPS, T=0, replicate 1; for T2 Avg, peak area as percentage of T=0 / T2 R1 peak area at 250 nm / T10 Avg, peak area as percentage of T=0 / T10 R1 peak area at 250 nm / T24 Avg, peak area as percentage of T=0 / T24 R1 peak area at 250 nm / T0 Avg, peak area as percentage of T=0: FgenL; for T2 Avg, peak area as percentage of T=0 / T2 R1 peak area at 250 nm / T10 Avg, peak area as percentage of T=0 / T10 R1 peak area at 250 nm / T24 Avg, peak area as percentage of T=0 / T24 R1 peak area at 250 nm: 50 mM CAPS pH 11, room temperature; for T2 Avg, peak area as percentage of T=0 / T2 R1 peak area at 250 nm: 2 hrs; for T2 R1 peak area at 250 nm / T10 R1 peak area at 250 nm / T24 R1 peak area at 250 nm: replicate 1; for T10 Avg, peak area as percentage of T=0 / T10 R1 peak area at 250 nm: 10 hrs; for T24 Avg, peak area as percentage of T=0 / T24 R1 peak area at 250 nm: 24 hrs; for T0 Avg, peak area as percentage of T=0: T=0 (reference)
Protocol: Basic assay procedure: RNA samples were diluted to 1.0 mg/mL in DNAase/RNAase free water. Amino acids were dissolved in water to a stock solution of 100 mM and a solution of 500 mM CAPS pH 11 was used. The two mRNA constructs tested were FgenL and Chi18. Each individual sample volume was 50 μL. To determine the amount of 1 M NaOH needed to adjust the final pH to 11.0 after the addition of all sample components, the sample volume was increased 100 fold (5 mL), the volume of 1 M NaOH recorded and this value was translated back down to the 50 μL sample volume.
The mRNA and amino acid were allowed to incubate for one hour prior to the addition of CAPS pH 11. All steps of the assay were conducted at room temperature.
Degradation reaction: After the CAPS addition, the samples were injected onto the Waters H-Class UPLC system to record the first timepoint, T=O. This resulting chromatogram was processed by integrating the area of absorbance at 250 nm for the mRNA construct. Immediately following this timepoint, the pH was adjusted to 11. Subsequent time points (2 hrs, 10 hrs, and 24 hrs) recorded the Absorbance Units (peak area) at 250 nm as a percentage of the peak area determined at T=O. Integration of the chromatogram for subsequent timepoints was conducted by analyzing the area of absorbance at 250 nm contained within the same time window in which the peak eluted in T=0 for the 100% intact mRNA.

Chi18 model RNA [1] = assay: Droplet Digital Polymerase Chain Reaction (ddPCR) Assay, Chi18; details: percent protection, pH 11.0, 30° C., 16 hours, n = 2
How it was run: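 Chi18 (25 fg/μL) or FgenL (10 fg/μL) RNA at pH 11.0 incubated 16 h with amino acids (10-point half-log series, ~300 mM top stock in CAPS), at 30° C or 44° C respectively. Intact RNA reverse-transcribed, ddPCR 5′-positive droplet fraction taken as protection; EC50 from four-parameter logistic fit.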

FgenL model RNA [2] = assay: TapeStation Assay, FgenL model RNA; design: Conc. FgenL#1 / Conc. FgenL#2: unit not given here; details: for % Control N = 1 / % Control N = 2 / % Control Average: FgenL RNA, 20 mM amino acids, 50 mM CAPS pH 11, 50° C. 15 min; for % Control N = 1 / % Control N = 2: vs Time 0; for % Control Average: vs Time 0, Avg N=2; for Conc. FgenL#1 / Conc. FgenL#2: intact FgenL RNA after 15 min at 50° C.; for Conc. FgenL#1: 20 mM amino acids in 50 mM CAPS pH 11, run #1; for Conc. FgenL#2: 20 mM amino acids in 50 mM CAPS pH 11, run #2
How it was run: (§1)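 Chi18 or FgenL model RNA at 50 ng/μL in 50 mM CAPS pH 11 was mixed with amino acids (stocks in CAPS, readjusted to >pH 11) and heated at 50° C for 0 or 15 minutes; time-0 samples stayed on ice. Intact RNA was measured by capillary electrophoresis with optical detection and compared with a no-degradation baseline.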

FgenL model RNA [3] = details: percent protection, pH 11.0, 44° C., 16 hours, n = 2
Chi18 model RNA [4] = assay: TapeStation Assay, Chi18 model RNA; design: Conc. chi18#1 / Conc. chi18#2: unit not given here; details: for % Control N = 1 / % Control N = 2 / % Control Avg.: Chi18 RNA, 20 mM amino acids, 50 mM CAPS pH 11, 50° C. 15 min; for % Control N = 1 / % Control N = 2: vs Time 0; for % Control Avg.: vs Time 0, Avg N=2; for Conc. chi18#1 / Conc. chi18#2: intact Chi18 RNA after 15 min at 50° C.; for Conc. chi18#1: 20 mM amino acids in 50 mM CAPS pH 11, run #1; for Conc. chi18#2: 20 mM amino acids in 50 mM CAPS pH 11, run #2
How it was run: as §1

Row | Structure (SMILES) | T0 R1 peak area at 250 nm (FgenL mRNA construct) | T2 Avg, peak area as percentage of T=0 (FgenL mRNA construct) [%] | T2 R1 peak area at 250 nm (FgenL mRNA construct) | T10 Avg, peak area as percentage of T=0 (FgenL mRNA construct) [%] | T10 R1 peak area at 250 nm (FgenL mRNA construct) | T24 Avg, peak area as percentage of T=0 (FgenL mRNA construct) [%] | T24 R1 peak area at 250 nm (FgenL mRNA construct) | T0 Avg, peak area as percentage of T=0 (FgenL mRNA construct) [%] | EC50 (Chi18 model RNA [1]) [mM] | % Control N = 1 (FgenL model RNA [2]) [%] | % Control N = 2 (FgenL model RNA [2]) [%] | % Control Average (FgenL model RNA [2]) [%] | Conc. FgenL#1 (FgenL model RNA [2]) | Conc. FgenL#2 (FgenL model RNA [2]) | EC50 (FgenL model RNA [3]) [mM] | % Control N = 1 (Chi18 model RNA [4]) [%] | % Control N = 2 (Chi18 model RNA [4]) [%] | % Control Avg. (Chi18 model RNA [4]) [%] | Conc. chi18#1 (Chi18 model RNA [4]) | Conc. chi18#2 (Chi18 model RNA [4])
1 | NCC(=O)O [Glycine] | 18897 | 29.3 | 3657 | 0.0 | 0 | 0.0 | 0 | 100.0 | 15 | 39.4 | 37.2 | 38.3 | 13.6 | 12.9 | > 30 | 42.0 | 51.4 | 46.7 | 22.4 | 27.2
2 | N[C@@H](Cc1c[nH]cn1)C(=O)O [Histidine] | 18949 | 34.5 | 8325 | 0.0 | 0 | 0.0 | 0 | 100.0 | > 30 | 4.2 | 3.7 | 4.0 | 1.46 | 1.3 | > 30 | 3.0 | 3.2 | 3.1 | 1.58 | 1.68
3 | O=C(O)[C@@H]1C[C@@H](O)CN1 [Hydroxyproline] | 16626 | 22.4 | 5048 | 0.0 | 0 | 0.0 | 0 | 100.0 | > 30 | 14.8 | 10.7 | 12.8 | 5.12 | 3.73 | > 30 | 17.3 | 17.3 | 17.3 | 9.2 | 
4 | CC[C@H](C)[C@H](N)C(=O)O [Isoleucine] | 14903 | 7.2 | 1687 | 0.0 | 0 | 0.0 | 0 | 100.0 | > 19 | 12.2 | 9.5 | 10.8 | 4.22 | 3.28 | > 30 | 19.3 | 24.2 | 21.8 | 10.3 | 12.8
5 | CC(C)C[C@H](N)C(=O)O [Leucine] | 13599 | 27.3 | 4569 | 0.0 | 0 | 0.0 | 0 | 100.0 | > 25 | 24.3 | 16.9 | 20.6 | 8.37 | 5.85 | > 30 | 30.8 | 31.9 | 31.4 | 16.4 | 16.9
6 | NCCCC[C@H](N)C(=O)O [Lysine] | 17400 | 0.0 | 0 | 0.0 | 0 | 0.0 | 0 | 100.0 | > 30 | 19.9 | 17.6 | 18.7 | 6.85 | 6.12 | > 30 | 22.0 | 15.5 | 18.7 | 11.7 | 8.18
7 | CSCC[C@H](N)C(=O)O [Methionine] | 15213 | 24.2 | 3658 | 0.0 | 0 | 0.0 | 0 | 100.0 | > 30 | 35.4 | 32.6 | 34.0 | 12.2 | 11.3 | > 30 | 49.7 | 49.7 | 49.7 | 26.5 | 
